Assay results: US20260132132A1, “3A,4,5,6-TETRAHYDRO-1 H-PYRAZOLO[3,4-C]PYRIDIN-7(7AH)-ONE DERIVATIVES AS FACTOR XIIA INHIBITORS” (KALVISTA PHARMACEUTICALS LIMITED, priority 2022, published 2026)

Assays:
[1] = target: T1, Human Factor XIIa (hFXIIa) (Homo sapiens, UniProt P00748); experiment: Determination of Human Factor XIIa (hFXIIa) inhibition, fluorogenic substrate IC50 assay; assay type: biochemical; conditions: fluorogenic substrate H-DPro-Phe-Arg-AFC at Km, 25° C., read-out: Human FXIIa IC50
T1 construct: purchased Enzyme Research Laboratories
T1 sequence (P00748 373-615 limits assumed): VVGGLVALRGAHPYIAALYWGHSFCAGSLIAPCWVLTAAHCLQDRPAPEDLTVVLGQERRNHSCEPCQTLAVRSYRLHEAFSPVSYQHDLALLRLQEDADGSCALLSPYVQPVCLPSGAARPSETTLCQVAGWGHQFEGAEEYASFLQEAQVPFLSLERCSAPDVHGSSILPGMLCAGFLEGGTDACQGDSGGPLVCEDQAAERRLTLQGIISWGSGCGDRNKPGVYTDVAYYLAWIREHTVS
T1 sequence (P00748 20-372 partner limits assumed): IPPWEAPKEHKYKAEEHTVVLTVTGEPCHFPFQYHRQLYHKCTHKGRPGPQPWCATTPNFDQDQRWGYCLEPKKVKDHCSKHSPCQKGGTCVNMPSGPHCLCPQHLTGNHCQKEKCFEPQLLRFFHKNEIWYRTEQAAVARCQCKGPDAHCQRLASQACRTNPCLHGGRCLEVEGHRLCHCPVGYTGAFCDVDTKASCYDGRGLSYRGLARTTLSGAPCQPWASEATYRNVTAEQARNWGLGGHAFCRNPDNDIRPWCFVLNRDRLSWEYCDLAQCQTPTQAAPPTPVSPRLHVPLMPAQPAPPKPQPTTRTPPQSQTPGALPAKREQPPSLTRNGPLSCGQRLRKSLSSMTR
Protocol: Determination of Human Factor XIIa (hFXIIa) inhibition
The Km for the cleavage of the substrate by hFXIIa was determined by standard transformation of the Michaelis-Menten equation, with subsequent inhibition assays performed at substrate Km concentration.

[2] = target: FXa (Homo sapiens, UniProt P00742); experiment: Related protease inhibition: FXa, fluorogenic substrate; assay type: biochemical; conditions: fluorogenic substrate at Km, 25° C.; H1-H3 = % activity at 40 μM
Protocol: Human serine protease enzyme Plasma Kallikrein, KLK1, FXa, Plasmin, Thrombin and Trypsin were assayed for enzymatic activity using an appropriate fluorogenic substrate at Km concentration, FXIa at fixed substrate concentration of 100 μM and various concentrations of the test compound.

Sequence of FXa (P00742 235-488 limits assumed): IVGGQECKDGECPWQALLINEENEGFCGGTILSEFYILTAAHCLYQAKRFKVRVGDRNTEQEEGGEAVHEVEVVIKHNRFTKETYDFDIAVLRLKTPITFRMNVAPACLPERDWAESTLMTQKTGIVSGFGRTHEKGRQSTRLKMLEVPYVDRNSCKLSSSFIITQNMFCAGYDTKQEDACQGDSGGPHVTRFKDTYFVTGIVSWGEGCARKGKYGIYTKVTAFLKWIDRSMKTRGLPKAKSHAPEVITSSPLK
Sequence of FXa (P00742 41-179 partner limits assumed): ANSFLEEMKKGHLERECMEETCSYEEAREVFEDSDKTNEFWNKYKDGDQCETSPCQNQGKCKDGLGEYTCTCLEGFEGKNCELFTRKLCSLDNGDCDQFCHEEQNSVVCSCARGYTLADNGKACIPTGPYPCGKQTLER

Structure (SMILES) | IC50 [1] | IC50 [2]
Cc1ccncc1CNC(=O)c1nn(-c2cccc(Cl)c2)c2c1CCN(c1ccc3c(c1)CN(CCO)CC31CC1)C2=O [Example 1144, 1-(3-Chlorophenyl)-6-(2′-(2-hydroxyethyl)-2′,3′-dihydro-1′H-spiro[cyclopropane-1,4′-isoquinolin]-7′-yl)-N-((4-methylpyridin-3-yl)methyl)-7-oxo-4,5,6,7-tetrahydro-1H-pyrazolo[3,4-c]pyridine-3-carboxamide] | 10 to 100 nM | 1000 to 3000 nM
CCNC(=O)c1nn(-c2cccc(Cl)c2)c2c1CCN(c1cccc(-n3ccn(C)c3=O)c1)C2=O [Example 1399, 1-(3-chlorophenyl)-N-ethyl-6-(3-(3-methyl-2-oxo-2,3-dihydro-1H-imidazol-1-yl)phenyl)-7-oxo-4,5,6,7-tetrahydro-1H-pyrazolo[3,4-c]pyridine-3-carboxamide] | 1000 to 3000 nM | > 40000 nM
CN1CCc2ccc(N3CCc4c(C(=O)N[C@H](CO)c5ccccc5)nn(-c5cccc(Cl)c5)c4C3=O)cc2C1=O [Example 1307, (S)-1-(3-chlorophenyl)-N-(2-hydroxy-1-phenylethyl)-6-(2-methyl-1-oxo-1,2,3,4-tetrahydroisoquinolin-7-yl)-7-oxo-4,5,6,7-tetrahydro-1H-pyrazolo[3,4-c]pyridine-3-carboxamide] | 100 to 300 nM | > 40000 nM
CCN1CCc2cc(F)c(N3CCc4c(C(=O)NCC5CC5)nn(-c5cccc(Cl)c5)c4C3=O)cc2C1 [Example 1079, 1-(3-chlorophenyl)-N-(cyclopropylmethyl)-6-(2-ethyl-6-fluoro-1,2,3,4-tetrahydroisoquinolin-7-yl)-7-oxo-4,5,6,7-tetrahydro-1H-pyrazolo[3,4-c]pyridine-3-carboxamide] | 10 to 100 nM | 10000 to 40000 nM
COCCN1CCc2ccc(N3CCc4c(C(=O)NCc5cc(C)n(C)n5)nn(-c5cccc(Cl)c5)c4C3=O)cc2C1=O [Example 1262, 1-(3-chlorophenyl)-N-((1,5-dimethyl-1H-pyrazol-3-yl)methyl)-6-(2-(2-methoxyethyl)-1-oxo-1,2,3,4-tetrahydroisoquinolin-7-yl)-7-oxo-4,5,6,7-tetrahydro-1H-pyrazolo[3,4-c]pyridine-3-carboxamide] | 100 to 300 nM | 10000 to 40000 nM
Cc1cc(CNC(=O)c2nn(-c3cccc(Cl)c3)c3c2CCN(c2ccc4c(c2)C(=O)N(CC(N)=O)CC4)C3=O)n[nH]1 [Example 1321, 6-(2-(2-amino-2-oxoethyl)-1-oxo-1,2,3,4-tetrahydroisoquinolin-7-yl)-1-(3-chlorophenyl)-N-((5-methyl-1H-pyrazol-3-yl)methyl)-7-oxo-4,5,6,7-tetrahydro-1H-pyrazolo[3,4-c]pyridine-3-carboxamide] | 10 to 100 nM | 1000 to 3000 nM
CC1(C)OCCC1NC(=O)c1nn(-c2cccc(Cl)c2)c2c1CCN(c1ccc3c(c1)CN(CCO)CC3)C2=O (stereo not shown) [Example 1112, 1-(3-chlorophenyl)-N-(2,2-dimethyltetrahydrofuran-3-yl)-6-(2-(2-hydroxyethyl)-1,2,3,4-tetrahydroisoquinolin-7-yl)-7-oxo-4,5,6,7-tetrahydro-1H-pyrazolo[3,4-c]pyridine-3-carboxamide] | 100 to 300 nM | > 40000 nM
CCNC(=O)c1nn(-c2cccc(Cl)c2)c2c1CCN(c1cccc(N3CC4(CC4)N(C)C3=O)c1)C2=O [Example 1369, 1-(3-chlorophenyl)-N-ethyl-6-(3-(4-methyl-5-oxo-4,6-diazaspiro[2.4]heptan-6-yl)phenyl)-7-oxo-4,5,6,7-tetrahydro-1H-pyrazolo[3,4-c]pyridine-3-carboxamide] | 3000 to 10000 nM | > 40000 nM
CN1CCc2ccc(N3CCc4c(C(=O)NCC5CC5)nn(-c5cccc(C(N)=O)c5)c4C3=O)cc2C1=O [Example 2006, 1-(3-carbamoylphenyl)-N-(cyclopropylmethyl)-6-(2-methyl-1-oxo-1,2,3,4-tetrahydroisoquinolin-7-yl)-7-oxo-4,5,6,7-tetrahydro-1H-pyrazolo[3,4-c]pyridine-3-carboxamide] | 10000 to 40000 nM | > 40000 nM
N#Cc1nn(-c2cccc(Cl)c2)c2c(=O)n(-c3ccc4c(c3)CN(CCO)CC4)cnc12 [Example 3013, 1-(3-chlorophenyl)-6-(2-(2-hydroxyethyl)-1,2,3,4-tetrahydroisoquinolin-7-yl)-7-oxo-6,7-dihydro-1H-pyrazolo[4,3-d]pyrimidine-3-carbonitrile] | 100 to 300 nM | 300 to 1000 nM
CC(=O)NCc1nn(-c2cccc(Cl)c2)c2c1CCN(c1ccc3c(c1)C(=O)N(C)CC3)C2=O [Example 1385, N-((1-(3-chlorophenyl)-6-(2-methyl-1-oxo-1,2,3,4-tetrahydroisoquinolin-7-yl)-7-oxo-4,5,6,7-tetrahydro-1H-pyrazolo[3,4-c]pyridin-3-yl)methyl)acetamide] | 1000 to 3000 nM | 3000 to 10000 nM
CCNC(=O)c1nn(-c2cncc(C)c2)c2c1CCN(c1ccc3c(c1)C(=O)N(C)CC3)C2=O [Example 2027, N-ethyl-6-(2-methyl-1-oxo-1,2,3,4-tetrahydroisoquinolin-7-yl)-1-(5-methylpyridin-3-yl)-7-oxo-4,5,6,7-tetrahydro-1H-pyrazolo[3,4-c]pyridine-3-carboxamide] | 3000 to 10000 nM | > 40000 nM
CN1CCc2ccc(N3CCc4c(C(=O)NC5CCOCC5)nn(-c5cccc(Cl)c5)c4C3=O)cc2C1 [Example 1043, 1-(3-chlorophenyl)-6-(2-methyl-1,2,3,4-tetrahydroisoquinolin-7-yl)-7-oxo-N-(tetrahydro-2H-pyran-4-yl)-4,5,6,7-tetrahydro-1H-pyrazolo[3,4-c]pyridine-3-carboxamide] | 300 to 1000 nM | 3000 to 10000 nM
COc1ccc(CNC(=O)c2nn(-c3cccc(Cl)c3)c3c2CCN(c2ccc4c(c2)CN(C)CC4)C3=O)cn1 [Example 1135, 1-(3-chlorophenyl)-N-((6-methoxypyridin-3-yl)methyl)-6-(2-methyl-1,2,3,4-tetrahydroisoquinolin-7-yl)-7-oxo-4,5,6,7-tetrahydro-1H-pyrazolo[3,4-c]pyridine-3-carboxamide] | 10 to 100 nM | 1000 to 3000 nM
CCCN1CCc2ccc(N3CCc4c(C(=O)NCc5cc(C)n(C)n5)nn(-c5cccc(Cl)c5)c4C3=O)cc2C1=O [Example 1210, 1-(3-chlorophenyl)-N-((1,5-dimethyl-1H-pyrazol-3-yl)methyl)-7-oxo-6-(1-oxo-2-propyl-1,2,3,4-tetrahydroisoquinolin-7-yl)-4,5,6,7-tetrahydro-1H-pyrazolo[3,4-c]pyridine-3-carboxamide] | 100 to 300 nM | > 40000 nM
O=C(NCC1CC1)c1nn(-c2cccc(Cl)c2)c2c1CCN(c1ccc3c(c1)C(=O)N(CCF)CC3)C2=O [Example 1253, 1-(3-chlorophenyl)-N-(cyclopropylmethyl)-6-(2-(2-fluoroethyl)-1-oxo-1,2,3,4-tetrahydroisoquinolin-7-yl)-7-oxo-4,5,6,7-tetrahydro-1H-pyrazolo[3,4-c]pyridine-3-carboxamide] | 100 to 300 nM | > 40000 nM
CCN1CCc2ccc(N3CCc4c(C(=O)NC5CCOCC5)nn(-c5cccc(Cl)c5)c4C3=O)cc2C1 [Example 1085, 1-(3-chlorophenyl)-6-(2-ethyl-1,2,3,4-tetrahydroisoquinolin-7-yl)-7-oxo-N-(tetrahydro-2H-pyran-4-yl)-4,5,6,7-tetrahydro-1H-pyrazolo[3,4-c]pyridine-3-carboxamide] | 100 to 300 nM | > 40000 nM
Cc1ccncc1CNC(=O)c1nn(-c2cccc(Cl)c2)c2c1CCN(c1cc3c(cc1F)CCN(CCO)C3)C2=O [Example 1134, 1-(3-Chlorophenyl)-6-(6-fluoro-2-(2-hydroxyethyl)-1,2,3,4-tetrahydroisoquinolin-7-yl)-N-((4-methylpyridin-3-yl)methyl)-7-oxo-4,5,6,7-tetrahydro-1H-pyrazolo[3,4-c]pyridine-3-carboxamide] | 10 to 100 nM | 10000 to 40000 nM
Cc1ccnnc1CNC(=O)c1nn(-c2cccc(Cl)c2)c2c1CCN(c1ccc3c(c1)C(=O)N(C)CC3)C2=O [Example 1310, 1-(3-chlorophenyl)-6-(2-methyl-1-oxo-1,2,3,4-tetrahydroisoquinolin-7-yl)-N-((4-methylpyridazin-3-yl)methyl)-7-oxo-4,5,6,7-tetrahydro-1H-pyrazolo[3,4-c]pyridine-3-carboxamide] | 300 to 1000 nM | 10000 to 40000 nM
O=C(NCC1CC1)c1nn(-c2cccc(Cl)c2)c2c1CCN(c1cccc(N3CCCCC3=O)c1)C2=O [Example 1285, 1-(3-chlorophenyl)-N-(cyclopropylmethyl)-7-oxo-6-(3-(2-oxopiperidin-1-yl)phenyl)-4,5,6,7-tetrahydro-1H-pyrazolo[3,4-c]pyridine-3-carboxamide] | 1000 to 3000 nM | > 40000 nM
